Earlier results in US20090042781A1, “Methods for Treating Diabetes” (Novo Nordisk A/S, priority 2004, published 2009).

Columns and labels:
[1] = administered by gastric gavage
[2] = injected into dogs

Row | Compound | serum gastrin level [1] | blood glucose level [2] | insulin release [2]
1 | CC(C)(Oc1ccc(C2CC2(Cl)Cl)cc1)C(=O)O (stereo not drawn) [ciprofibrate] | increase | – | –
2 | Exendin-4 | – | lowering of the blood glucose level | stimulate insulin release
